Measurements taken from patent publication US11708366B2, “Heteroaryl substituted spiropiperidinyl derivatives and pharmaceutical uses thereof” (Novartis AG, priority 2020, dated 2023).

Experiments:
[1] = target: T1, LTC4S (Homo sapiens (Human), UniProt Q16873); assay: Human LTC4S enzymatic assay (HTRF detection of LTC4-Me); assay type: biochemical
Experimental: A. Human LTC4S Enzymatic Assay:
LTC4 synthase catalyzes the conversion of Leukotriene A4 (LTA4) to Leukotriene C4 (LTC4) in the presence of reduced glutathione (GSH) as a co-substrate. For compound testing, compounds are delivered as 10 mM stock solutions in 90% DMSO in matrix tubes. From this, a 1:3 dilution dose response series is prepared with a starting concentration of 30 μM to 0.1 nM. For the enzymatic assay 97.5 nL of compound/DMSO solution is transferred to each well and 5 μL enzyme solution (assay buffer: 50 mM bis-tris propane pH 7.3, 250 mM NaCl, 10 mM MgCl2, 0.001% MGN3) is added to the wells. […] The enzyme compound mixture is incubated at room temperature for 15 minutes prior to the addition of 5 μL substrate solution. […] A final substrate concentration of 400 μM GSH and 5 μM LTA4-Me is chosen.
The LTA4-Me is obtained commercially in 2% triethylamine/hexane solvent. As this solvent is incompatible with the HTRF assay it has to be exchanged with DMSO according to following procedure: add 50 μL of 100% DMSO to 50 μL LTA4-Me (3 mM) in a 2 mL Eppendorf tube and mix gently by inverting the tube. The triethylamine/hexane is evaporated under a constant argon flux at room temperature. The DMSO-LTA4-Me (3 mM) is aliquoted and stored at −20° C. for not longer than 4 weeks, as it is not stable in DMSO due to its oxidizing properties.
Upon addition of the substrate, the plate is immediately placed on a shaker for 5 min at room temperature. Immediately after the 5 min incubation 5 μL of H2O2 solution is added to all wells to stop the reaction. The plate contents are mixed before the addition of detection reagents. […] For the detection of the product of the enzymatic reaction LTC4-Me, the Cisbio LTC4-HTRF kit is used as the assay is compatible with the detection of LTC4-Me. 5 μL of diluted LTC4-d2 conjugate (according to manufacturer's protocol) are added to all wells of the assay plate and the contents gently mixed and incubated for 5 minutes at room temperature. […] The percent inhibition for each point of an inhibition curve is calculated after data interpolation using the LTC4-Me standard curve, to convert the HTRF signal to the amount of LTC4-Me produced within the LTC4S catalyzed reaction on each plate. The data is analyzed using parametric curve fitting to determine IC50 values of LTC4S inhibitors.

[2] = target: T1, LTC4S; assay: Human whole blood HTRF assay (LTC4 release after calcium ionophore A23187); assay type: cell-based; details: calcium ionophore A23187 stimulation, LTC4 by HTRF
[3] = 0.75 nM enzyme, 400 μM GSH, 5 μM LTA4-Me, 15 min pre-incubation, read-out: human LTC4S IC50 (enzymatic assay)
[4] = human whole blood diluted 1:3, 4 h incubation, read-out: human whole blood HTRF IC50
[5] = human whole blood HTRF IC50, human whole blood diluted 1:3, 4 h incubation

SMILES | IC50 [1, 3] [nM] | IC50 [2, 4] [nM] | IC50 [1] [nM] | IC50 [2, 5] [nM]
O=C1CCCC2(CCN(c3ccn4nc(C(F)(F)F)cc4n3)CC2)N1c1ccc(Cl)c(F)c1 [Example 5, 1-(4-chloro-3-fluorophenyl)-9-(2-(trifluoromethyl)pyrazolo[1,5-a]pyrimidin-5-yl)-1,9-diazaspiro[5.5]undecan-2-one] | 5 | 10 | – | –
O=C1CCCC2(CCN(c3ccnc(N4CC5(CC5)C4)n3)CC2)N1c1ccc(Cl)c(F)c1 [Example 35a, 9-(2-(5-azaspiro[2.3]hexan-5-yl)pyrimidin-4-yl)-1-(4-chloro-3-fluorophenyl)-1,9-diazaspiro[5.5]undecan-2-one] | – | – | 12 | 40
O=C1CCCC2(CCN(c3cn(-c4ccc(F)cc4)nn3)CC2)N1c1ccc(Cl)c(F)c1 [Example 29, 1-(4-chloro-3-fluorophenyl)-9-(1-(4-fluorophenyl)-1H-1,2,3-triazol-4-yl)-1,9-diazaspiro[5.5]undecan-2-one] | – | – | 57 | 180
O=C1CCCC2(CCN(c3ncnc(N4CC(C(F)(F)F)C4)c3F)CC2)N1c1ccc(Cl)c(F)c1 [Example 37, 1-(4-chloro-3-fluorophenyl)-9-(5-fluoro-6-(3-(trifluoromethyl)azetidin-1-yl)pyrimidin-4-yl)-1,9-diazaspiro[5.5]undecan-2-one] | 12 | 120 | – | –
O=C1CCCC2(CCN(c3cc(OCC(F)F)ncn3)CC2)N1c1ccc(Cl)c(F)c1 [Example 84, 1-(4-chloro-3-fluorophenyl)-9-(6-(2,2-difluoroethoxy)pyrimidin-4-yl)-1,9-diazaspiro[5.5]undecan-2-one] | 8 | 9 | – | –
O=C1CCCC2(CCN(c3cccc(-c4ccc(F)cc4)n3)CC2)N1c1ccc(Cl)cc1 [Example 32, 1-(4-chlorophenyl)-9-(6-(4-fluorophenyl)pyridin-2-yl)-1,9-diazaspiro[5.5]undecan-2-one] | 7 | 170 | – | –
O=C1CCCC2(CCN(c3cc(OCC(F)(F)F)ccn3)CC2)N1c1ccc(Cl)c(F)c1 [Example 81, 1-(4-chloro-3-fluorophenyl)-9-(4-(2,2,2-trifluoroethoxy)pyridin-2-yl)-1,9-diazaspiro[5.5]undecan-2-one] | 13 | 72 | – | –
O=C1CCCC2(CCN(c3noc(C45CC(C(F)(F)F)(C4)C5)n3)CC2)N1c1ccc(Cl)c(F)c1 [Example 7, 1-(4-chloro-3-fluorophenyl)-9-(5-(3-(trifluoromethyl)bicyclo[1.1.1]pentan-1-yl)-1,2,4-oxadiazol-3-yl)-1,9-diazaspiro[5.5]undecan-2-one] | 76 | 100 | – | –
O=C1CCCC2(CCN(c3nc(-c4ccc(F)cc4)n[nH]3)CC2)N1c1ccc(Cl)c(F)c1 [Example 26, 1-(4-chloro-3-fluorophenyl)-9-(3-(4-fluorophenyl)-1H-1,2,4-triazol-5-yl)-1,9-diazaspiro[5.5]undecan-2-one] | 16 | 110 | – | –
O=C1CCCC2(CCN(c3ncn(-c4ccc(F)cc4)n3)CC2)N1c1ccc(Cl)c(F)c1 [Example 1, 1-(4-chloro-3-fluorophenyl)-9-(1-(4-fluorophenyl)-1H-1,2,4-triazol-3-yl)-1,9-diazaspiro[5.5]undecan-2-one] | 6 | 13 | – | –
O=C1CCCC2(CCN(c3ccn(-c4ccc(F)cc4)n3)CC2)N1c1ccc(Cl)c(F)c1 [Example 30, 1-(4-chloro-3-fluorophenyl)-9-(1-(4-fluorophenyl)-1H-pyrazol-3-yl)-1,9-diazaspiro[5.5]undecan-2-one] | 13 | 360 | – | –
O=C1CCCC2(CCN(c3cnn(-c4ccc(F)cc4)n3)CC2)N1c1ccc(Cl)c(F)c1 [Example 31, 1-(4-chloro-3-fluorophenyl)-9-(2-(4-fluorophenyl)-2H-1,2,3-triazol-4-yl)-1,9-diazaspiro[5.5]undecan-2-one] | 15 | 120 | – | –
